Results taken from patent US9890166B2, “Imidazopyrrolidine derivatives and their use in the treatment of disease” (NOVARTIS AG, priority 2013, dated 2018).

Key:
[1] = target: BRD4 (His-Brd4(44-477)) (Homo sapiens (Human), UniProt O60885); test: TR-FRET in-vitro binding assay for BRD4; conditions: single determination or n ≧ 2 independent determinations, read-out: Biochemical IC50 BRD4
Summary of the method: (§1)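 Compounds were serially diluted over eight concentrations and added to wells. TR-FRET signal was then measured.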

[2] = target: BRD2 (His-Brd2(60-472)) (Homo sapiens (Human), UniProt P25440); test: TR-FRET in-vitro binding assay for BRD2; conditions: single determination or n ≧ 2 independent determinations, read-out: Biochemical IC50 BRD2
Summary of the method: as §1

[3] = target: BRD3 (His-Brd3(20-477)) (Homo sapiens (Human), UniProt Q15059); test: TR-FRET in-vitro binding assay for BRD3; conditions: single determination or n ≧ 2 independent determinations, read-out: Biochemical IC50 BRD3
Summary of the method: as §1

[4] = target: CREBBP bromodomain (His-CREBBP(1081-1197)) (Homo sapiens (Human), UniProt Q92793); test: AlphaScreen in-vitro binding assay for CREBBP; conditions: single determination or n ≧ 2 independent determinations, read-out: Biochemical IC50 CREBBP
Summary of the method: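 Reactions at 30 °C for 35 min, then Ni-chelate acceptor and streptavidin donor beads in HEPES pH 7.5, NaCl, Tween20, BSA, 60 min at room temperature. Eight-point compound series; IC50 by non-linear regression of percent inhibition.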

[5] = tested on: THP-1 cells; test: Cell growth inhibition assay (CellTiter-Glo), THP-1; conditions: for GI50: Homo sapiens, THP-1, read-out: THP-1 GI50; for THP-1 TGI: THP-1 cells, total growth inhibition, CellTiter-Glo;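 for all read-outs here: viability read as cellular ATP luminescence after 4 days, 3-fold dilution series from 10 µM, DMSO vehicle-treated cells taken as 100%, cell-free medium wells as −100%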
[6] = tested on: K-562 cells; test: Cell growth inhibition assay (CellTiter-Glo), K-562; conditions: for GI50: Homo sapiens, K562, read-out: K-562 GI50; for K-562 TGI: K-562 cells, total growth inhibition, CellTiter-Glo;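 for all read-outs here: cellular ATP measured by luminescence after 4 days of exposure, 3-fold dilution series from 10 µM, DMSO vehicle-treated cells define 100%, cell-free medium wells −100%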
[7] = tested on: MV-4-11 cells; test: Cell growth inhibition assay (CellTiter-Glo), MV-4-11; conditions: for GI50: Homo sapiens, MV4-11, read-out: MV-4-11 GI50; for MV-4-11 TGI: MV-4-11 cells, total growth inhibition, CellTiter-Glo;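 for all read-outs here: cellular ATP luminescence after 4 days, 3-fold dilution series from 10 µM top dose, vehicle (0.1% DMSO) set to 100%, cell-free medium set to −100%, day 0 corrected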

BRD3 (His-Brd3(20-477)), sequence (Q15059 20-477): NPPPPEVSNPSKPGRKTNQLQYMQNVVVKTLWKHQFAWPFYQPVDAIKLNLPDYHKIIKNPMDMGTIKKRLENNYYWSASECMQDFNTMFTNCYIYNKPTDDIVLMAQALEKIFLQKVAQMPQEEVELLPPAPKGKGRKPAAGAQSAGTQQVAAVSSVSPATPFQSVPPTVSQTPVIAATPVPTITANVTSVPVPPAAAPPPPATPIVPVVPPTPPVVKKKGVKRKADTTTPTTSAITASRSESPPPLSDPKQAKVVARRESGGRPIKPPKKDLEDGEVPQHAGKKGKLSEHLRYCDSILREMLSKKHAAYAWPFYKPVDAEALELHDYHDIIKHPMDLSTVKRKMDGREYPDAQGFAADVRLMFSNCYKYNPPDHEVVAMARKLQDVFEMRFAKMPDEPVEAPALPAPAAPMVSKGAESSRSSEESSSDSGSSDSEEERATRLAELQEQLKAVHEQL
CREBBP bromodomain (His-CREBBP(1081-1197)), sequence (Q92793 1081-1197): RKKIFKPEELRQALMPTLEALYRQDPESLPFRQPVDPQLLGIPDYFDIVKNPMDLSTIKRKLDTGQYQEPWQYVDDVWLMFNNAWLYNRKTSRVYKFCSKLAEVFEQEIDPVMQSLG
BRD2 (His-Brd2(60-472)), sequence (P25440 60-472): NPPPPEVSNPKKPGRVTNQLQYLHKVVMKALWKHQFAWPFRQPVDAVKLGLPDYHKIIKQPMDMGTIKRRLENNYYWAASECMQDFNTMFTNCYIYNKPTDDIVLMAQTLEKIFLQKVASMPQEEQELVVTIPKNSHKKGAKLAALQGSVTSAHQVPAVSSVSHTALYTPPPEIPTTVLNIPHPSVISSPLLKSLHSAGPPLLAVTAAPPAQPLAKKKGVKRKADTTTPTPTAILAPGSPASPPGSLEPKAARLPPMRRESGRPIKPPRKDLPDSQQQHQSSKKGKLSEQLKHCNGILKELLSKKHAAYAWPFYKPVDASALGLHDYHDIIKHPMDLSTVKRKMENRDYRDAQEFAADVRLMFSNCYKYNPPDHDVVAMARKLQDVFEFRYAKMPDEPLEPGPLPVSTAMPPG

Compound	IC50 [1]	IC50 [2]	IC50 [3]	IC50 [4]	GI50 [5]	GI50 [6]	GI50 [7]	THP-1 TGI [5]	K-562 TGI [6]	MV-4-11 TGI [7]
COc1ccc(-c2nc3c([nH]2)[C@@H](c2ccc(Cl)cc2)N(c2cc(C)c4nnc(C)n4c2)C3=O)cn1 [Example 129, (R)-6-(4-chlorophenyl)-5-(3,8-dimethyl-[1,2,4]triazolo[4,3-a]pyridin-6-yl)-2-(6-methoxypyridin-3-yl)-5,6-dihydropyrrolo[3,4-d]imidazol-4(1H)-one]	1840 nM	4700 nM	2320 nM	> 37000 nM	662 nM	1070 nM	209 nM	1080 nM	>10000 nM	343 nM
Cc1cc(N2C(=O)c3nc(C4=CCOCC4)[nH]c3C2c2ccc(Cl)cc2)cn(C)c1=O (centres unmarked) [Example 134, 6-(4-chlorophenyl)-2-(3,6-dihydro-2H-pyran-4-yl)-5-(1,5-dimethyl-6-oxo-1,6-dihydropyridin-3-yl)-5,6-dihydropyrrolo[3,4-d]imidazol-4(1H)-one]	38 nM	80 nM	35 nM	1680 nM	120 nM	610 nM	72.4 nM	399 nM	>10000 nM	141 nM
COc1ncccc1-c1nc2c(n1C(C)C)C(c1ccc(Cl)cc1)N(c1cc(C)c3nnc(C(F)F)n3n1)C2=O (centres unmarked) [Example 148, 6-(4-chlorophenyl)-5-(3-(difluoromethyl)-8-methyl-[1,2,4]triazolo[4,3-b]pyridazin-6-yl)-1-isopropyl-2-(2-methoxypyridin-3-yl)-5,6-dihydropyrrolo[3,4-d]imidazol-4(1H)-one]	23 nM	36 nM	22 nM	> 37000 nM	9.99 nM	69.5 nM	6.47 nM	24.95 nM	>10000 nM	13.1 nM
COc1ncc(-c2nc3c([nH]2)[C@@H](c2ccc(Cl)cc2)N(c2cc(OC)c4nnc(C)n4c2)C3=O)c(OC)n1 [Example 128, (R)-6-(4-chlorophenyl)-2-(2,4-dimethoxypyrimidin-5-yl)-5-(8-methoxy-3-methyl-[1,2,4]triazolo[4,3-a]pyridin-6-yl)-5,6-dihydropyrrolo[3,4-d]imidazol-4(1H)-one]	84.5 nM	220 nM	136 nM	16400 nM	371 nM	1230 nM	188 nM	947 nM	>10000 nM	350.5 nM
Cc1cc(N2C(=O)c3nc(C4=CCOCC4)n(C(C)C)c3[C@H]2c2ccc(Cl)cc2)cn2c(C)nnc12 [Example 84, (R)-6-(4-chlorophenyl)-2-(3,6-dihydro-2H-pyran-4-yl)-5-(3,8-dimethyl-[1,2,4]triazolo[4,3-a]pyridin-6-yl)-1-isopropyl-5,6-dihydropyrrolo[3,4-d]imidazol-4(1H)-one]	18 nM	36 nM	24 nM	3500 nM	44 nM	73.2 nM	14.6 nM	99.8 nM	>10000 nM	29.4 nM
COc1ncccc1-c1nc2c([nH]1)C(c1ccc(Cl)cc1)N(c1cc(C)c3nnc(C(F)F)n3c1)C2=O (centres unmarked) [Example 140, 6-(4-chlorophenyl)-5-(3-(difluoromethyl)-8-methyl-[1,2,4]triazolo[4,3-a]pyridin-6-yl)-2-(2-methoxypyridin-3-yl)-5,6-dihydropyrrolo[3,4-d]imidazol-4(1H)-one]	29 nM	42 nM	28 nM	> 37000 nM	63.6 nM	180 nM	38.4 nM	124.5 nM	>10000 nM	66.8 nM
COc1cc(C(F)(F)F)ccc1-c1nc2c(n1C(C)C)C(c1ccc(Cl)cc1)N(c1cc(C)c3nnc(C(F)F)n3c1)C2=O (centres unmarked) [Example 144, 6-(4-chlorophenyl)-5-(3-(difluoromethyl)-8-methyl-[1,2,4]triazolo[4,3-a]pyridin-6-yl)-1-isopropyl-2-(2-methoxy-4-(trifluoromethyl)phenyl)-5,6-dihydropyrrolo[3,4-d]imidazol-4(1H)-one]	23 nM	26 nM	22 nM	> 37000 nM	46.2 nM	116 nM	30.8 nM	92.95 nM	>10000 nM	46.9 nM
Cc1nc2c([nH]1)C(c1ccc(Cl)cc1)N(c1cc(C)c3nnc(C(F)F)n3c1)C2=O (centres unmarked) [Example 139, 6-(4-chlorophenyl)-5-(3-(difluoromethyl)-8-methyl-[1,2,4]triazolo[4,3-a]pyridin-6-yl)-2-methyl-5,6-dihydropyrrolo[3,4-d]imidazol-4(1H)-one]	32.5 nM	86 nM	42 nM	> 37000 nM	40.7 nM	214 nM	57.5 nM	115.5 nM	>10000 nM	99.2 nM
COC(=O)N1CC=C(c2nc3c(n2C(C)C)C(c2ccc(Cl)cc2)N(c2cc(C)c4nnc(C)n4c2)C3=O)CC1 (centres unmarked) [Example 65, methyl 4-(6-(4-chlorophenyl)-5-(3,8-dimethyl-[1,2,4]triazolo[4,3-a]pyridin-6-yl)-1-isopropyl-4-oxo-1,4,5,6-tetrahydropyrrolo[3,4-d]imidazol-2-yl)-5,6-dihydropyridine-1(2H)-carboxylate]	24 nM	50 nM	27.5 nM	4000 nM	138 nM	298 nM	19.3 nM	299.5 nM	>10000 nM	38.95 nM

These reach a lower IC50 [1]. Values come first.

IC50 [1]	IC50 [2]	IC50 [3]	IC50 [4]	GI50 [5]	GI50 [6]	GI50 [7]	Compound	THP-1 TGI [5]	K-562 TGI [6]	MV-4-11 TGI [7]
15 nM	29 nM	20 nM	3650 nM	138 nM	277 nM	16.3 nM	Cc1cc(N2C(=O)c3nc(C4=CCCN(C)C4)n(C(C)C)c3[C@H]2c2ccc(Cl)cc2)cn2c(C)nnc12 [Example 85]	370 nM	>10000 nM	32.5 nM
< 11 nM	13 nM	< 11 nM	1080 nM	2.54 nM	8.96 nM	1.57 nM	Cc1cc(N2C(=O)c3nc(C4CCOCC4)n(C(C)C)c3[C@H]2c2ccc(Cl)cc2)cc2c1nnn2C [Example 82, (R)-6-(4-chlorophenyl)-5-(1,4-dimethyl-1H-benzo[d][1,2,3]triazol-6-yl)-1-isopropyl-2-(tetrahydro-2H-pyran-4-yl)-5,6-dihydropyrrolo[3,4-d]imidazol-4(1H)-one]	9.82 nM	>10000 nM	6.03 nM
13 nM	25 nM	23 nM	28900 nM	18.4 nM	95 nM	25.6 nM	COc1ncccc1-c1nc2c([nH]1)[C@@H](c1ccc(Cl)cc1)N(c1cc(C)c3nnc(C(F)F)n3c1)C2=O [Example 153, (R)-6-(4-chlorophenyl)-5-(3-(difluoromethyl)-8-methyl-[1,2,4]triazolo[4,3-a]pyridin-6-yl)-2-(2-methoxypyridin-3-yl)-5,6-dihydropyrrolo[3,4-d]imidazol-4(1H)-one]	44.3 nM	>10000 nM	38.6 nM
< 11 nM	17 nM	< 11 nM	> 37000 nM	5.65 nM	30.8 nM	2.99 nM	COc1ncccc1-c1nc2c(n1C(C)C)[C@@H](c1ccc(Cl)cc1)N(c1cc(C)c3nnc(C(F)F)n3n1)C2=O [Example 168, (R)-6-(4-chlorophenyl)-5-(3-(difluoromethyl)-8-methyl-[1,2,4]triazolo[4,3-b]pyridazin-6-yl)-1-isopropyl-2-(2-methoxypyridin-3-yl)-5,6-dihydropyrrolo[3,4-d]imidazol-4(1H)-one]	18.9 nM	>10000 nM	7.7 nM
13 nM	17 nM	12 nM	1450 nM	5.53 nM	28.8 nM	4.14 nM	Cc1cc(N2C(=O)c3nc(C4CCOCC4)n(C(C)C)c3C2c2ccc(Cl)cc2)cc2c1nnn2C (centres unmarked) [Example 80, 6-(4-chlorophenyl)-5-(1,4-dimethyl-1H-benzo[d][1,2,3]triazol-6-yl)-1-isopropyl-2-(tetrahydro-2H-pyran-4-yl)-5,6-dihydropyrrolo[3,4-d]imidazol-4(1H)-one]	15.4 nM	>10000 nM	9.45 nM
